Measured values from patent publication US20020103219A1, “Stable viscous liquid formulations of amlexanox for the prevention and treatment of mucosal diseases and disorders” (priority 2000, published 2002).
Where two headings read alike, the source gives them in different places.

Key:
[1] = test system: IgE-mediated bronchoconstriction; details: rats, cited from earlier work
[2] = test system: passive cutaneous anaphylaxis mediated by IgE; details: rat, cited from earlier work
cyclo-oxygenase products = details: whole tissue studies; cited from earlier work
[3] = water solubility of amlexanox; format: physicochemical
Description: (§1) The molecule contains a free carboxylate group, and the water solubility of amlexanox can be increased by raising the pH of the dissolution solution. However, caution is necessary using this approach as degradation of amlexanox may take place at high pH. […] Thus the formulation of a viscous, mucoadhesive solution of amlexanox which is also stable represented a major challenge.

bronchoconstriction = details: guinea pigs passively sensitized with rabbit IgG, intravenously; cited from earlier work
[4] = test system: platelet activating factor-induced bronchoconstriction; details: guinea pigs, intravenous doses of 5 and 20 mg/kg; cited from earlier work
mast cells = details: cited from earlier work
[5] = test system: leukotriene D4-induced bronchoconstriction; details: guinea pigs, intravenous doses of 5 and 20 mg/kg; cited from earlier work
tuberculin reaction = details: intravenous, cited from earlier work
airway smooth muscle = details: mechanism of action; cited from earlier work
Arthus reaction = details: cited from earlier work
[6] = test system: 2,4-dinitro-1 -fluorobenzene-induced contact sensitivity; details: intravenous, cited from earlier work
[7] = test system: cyclic nucleotide phosphodiesterase; details: cited from earlier work
inflammation = details: in vivo; cited from earlier work
[8] = stability of amlexanox in aqueous solution; format: physicochemical; details: under certain conditions, solution pH greater than about 8.0
Description: as §1

allergic reactions = details: variety of in vivo models; cited from earlier work
[9] = test system: IgG1-mediated bronchoconstriction; details: actively sensitized guinea pigs, cited from earlier work
[10] = test system: acetylcholine-induced bronchoconstriction; details: text b108; cited from earlier work
[11] = test system: IgE-mediated constriction; details: actively sensitized guinea pigs, cited from earlier work
[12] = test system: leukotriene D4 (LTD4) generation; details: mechanism of action; cited from earlier work
leukotrienes = details: in vitro; cited from earlier work
[13] = test system: histamine-induced bronchoconstriction; details: cited from earlier work

Structure (SMILES): CC(C)c1ccc2oc3nc(N)c(C(=O)O)cc3c(=O)c2c1 [Amlexanox, 2-amino-7-(1 methylethyl)-5-oxo-5H[1]benzopyrano[2,3-b]pyridine-3-carboxylic acid]
- suppression of IgE-mediated bronchoconstriction ([1]; intravenous dose of 1 mg/kg): significantly suppressed
- suppression of IgE-mediated bronchoconstriction ([1]; oral dose of 10 mg/kg): significantly suppressed
- ED50, inhibition of passive cutaneous anaphylaxis ([2]; intravenous): 0.032 mg/kg
- ED50, inhibition of passive cutaneous anaphylaxis ([2]; oral): 0.73 mg/kg
- generation of cyclo-oxygenase products (cyclo-oxygenase products): Does not inhibit generation of cyclo-oxygenase products in whole
- water solubility [3]: poorly water soluble
- ED50, inhibition of bronchoconstriction (bronchoconstriction): 9 mg/kg
- suppression of bronchoconstriction induced by platelet activating factor [4]: dose-related suppression
- release of inflammatory mediators from mast cells (mast cells; antigen-antibody induced release, ionophore induced release): Potent inhibitor of the release of inflammatory mediators from mast cells
- immunologically-stimulated release of histamine from mast cells (mast cells; mechanism of action, in vivo and in vitro studies): Inhibition
- suppression of bronchoconstriction induced by leukotriene D4 [5]: dose-related suppression
- inhibition of the tuberculin reaction (tuberculin reaction; 5 mg/kg): not
- inhibition of the tuberculin reaction (tuberculin reaction; 20 mg/kg): significant inhibition
- contractile response of airway smooth muscle to LTD4 (airway smooth muscle): Antagonism
- inhibition of the Arthus reaction (Arthus reaction; intravenous doses of 5 and 20 mg/kg given immediately after antigen challenge): moderate activity
- inhibition of the Arthus reaction (Arthus reaction; oral doses of 50 and 10 mg/kg given 1 or 3 hours after antigen challenge): moderate activity
- inhibition of contact sensitivity ([6]; 5 mg/kg): not
- inhibition of contact sensitivity ([6]; 20 mg/kg): significant inhibition
- inhibition of cyclic nucleotide phosphodiesterase [7]: Potent inhibitor of cyclic nucleotide phosphodiesterase
- anti-inflammatory activity (inflammation): Weak anti-inflammatory activity in vivo
- degradation in aqueous solution [8]: degrade slowly
- anti-allergic activity (allergic reactions): Potent ant-allergic agent demonstrated in a variety of in vivo models
- ED50, IgG1-mediated bronchoconstriction ([9]; intravenous): 8.2 mg/kg
- ED50, IgG1-mediated bronchoconstriction ([9]; oral): 160 mg/kg
- effect on acetylcholine-induced bronchoconstriction [10]: not active
- inhibition of IgE-mediated constriction ([11]; 20 mg/kg, another study): significant inhibition
- ED50, inhibition of IgE-mediated constriction ([11]; one study): 14.5 mg/kg
- leukotriene D4 (LTD4) generation [12]: Inhibition
- formation of leukotrienes (leukotrienes): Inhibits formation of leukotrienes, in vitro
- bronchoconstriction induced by histamine ([13]; Table 1): Has no effect on bronchoconstriction induced by histamine or
- effect on histamine-induced bronchoconstriction ([13]; text b108): slightly suppressed
